Measurements: patent US12616750B2, “Combination therapy utilizing DNA alkylating agents and ATR inhibitors” (Merck Patent GmbH, priority 2018, dated 2026)
Where two headings read alike, the source gives them in different places. Where a SMILES comes first, the peptide text is derived from it. [ ]: non-standard residue; d: D form. The star is where a group is joined. Dolaproine = CO[C@@H]([C@@H]1CCCN1)[C@@H](C)C(=O)O; Dil = CC[C@H](C)[C@H](NC)[C@@H](CC(=O)O)OC; X1 = C[C@@H](N*)[C@@H](O)c1ccccc1; NMeV = CN[C@H](C(=O)O)C(C)C

Key:
Assay type in all cases: cell-based
HCC-1954 cells [1] = assay: Dose-matrix combination assay (synergy score, Loewe model)
Description: (§1) Dose-matrix combination assays were performed as described above, but performed in opague 384-well plates (2k viable cells/well). Compounds were added using Tecan D300e liquid. Protein solutions were supplemented with 0.3% Tween-20 (final) and diluted to 1 μM. All wells were normalized to the maximum amount of DMSO (maximum 0.4%) or Tween-20 added. […] Luminescence values were normalized to luminescence of non-treated cells and dose-response was fitted using Smart Fit. Synergy scores were calculated using LOEWE synergy model.
(§2) The screening of synergistic drug combinations can be accomplished by performing a dose-matrix assay. Therefore, two drugs are serial diluted and mixed at every dose level, yielding a dose-matrix. The drug combination can be additive if the effects of the combination are identical to the added effects of the single agents. However, the effects of the combination might also be stronger than the activity of the single agents. This scenario is termed synergy, whereas weaker combination effects compared to the single agents are termed antagonism. A dose-matrix assay is depicted schematically in FIG. 2 which illustrates the outcomes of a dose-matrix assay: additivity, antagonism and synergy.
(§3) The screening was conducted by serial diluting the duocarmycin derivative DUBA (10) and the DDR inhibitors. […] DUBA was combined in a dose-matrix assay with hycanthone. The cell viability was measured after 6 d of treatment using the CellTiter-Glo assay kit. The signals of the cell viability assay were normalized to untreated cells and fitted. […] By subtracting the modeled data from the fitted data, an excess matrix was generated. The excess matrix can be considered as a visualization of the differences between model and actual data which also highlights spots of either high synergy or antagonism. The quantification of the combination effects, however, was performed by calculating synergy scores. […] Besides synergy score, the potency of the drugs in monotherapy was obtained from these experiments. […] The potency was obtained from this dose-response curve.
(§4) The scattering of S was determined in a sham control experiment to define a cutoff for classifying a combination as truly synergistic or antagonistic. Thus seven different compounds were combined with itself on four different cell lines and the three-σ confidence interval was calculated around the mean of the measurement. […] For the sake of convenience, the cutoff was set to a value of ±1.
(§5) Synergy scores (S) were obtained from the combination experiments that indicated additivity […] if model and actual response were equal. […] The magnitude of the score determined the extent of the combination effects.

MDA-MB-453 cells = assay: as above; conditions: combination with AZD6738; MDA-MB-453
Description: (§6) Dose-matrix combination assays were performed as described above, but performed in opague 384-well plates (2k viable cells/well). Compounds were added using Tecan D300e liquid. Protein solutions were supplemented with 0.3% Tween-20 (final) and diluted to 1 μM. All wells were normalized to the maximum amount of DMSO (maximum 0.4%) or Tween-20 added. Read out of luminescence was performed on Envision 2104 Multilabel Reader (Perkin Elmer) and data were evaluated using Genedata Screener® version 14.0.6-Standard (Genedata AG). Luminescence values were normalized to luminescence of non-treated cells and dose-response was fitted using Smart Fit. Synergy scores were calculated using LOEWE synergy model.
as §2

NCI-N87 cells = assay: as above; conditions: combination with AZD6738; NCI-N87
Description: as §6, §2

MDA-MB-468 cells = assay: as above; conditions: combination with DUBA; MDA-MB-468, 6 d; S ± SD; cutoff ±1
Description: as §1, §2, §3, §4, §5

HCC-1954 cells [2] = assay: Cytotoxicity (cell viability, CellTiter-Glo, 6 d); conditions: Homo sapiens, HCC1954; duocarmycin variant alone, HCC-1954; mean ± SD or mean (individual values); read-out: IC50
Description: as §1
After 6 d of treatment, CellTiter-Glo luminescent assay was performed and the luminescence was read on Envision Reader. The results were analyzed using GeneData Screener as described before.

[3] = combination with AZD6738, HCC-1954, 6 d
[4] = combination with DUBA, cell line not given (screen on HCC-1954 or MDA-MB-468)
[5] = combination with DUBA, HCC-1954, 6 d, S ± SD, cutoff ±1

COc1cc2cc(c1Cl)N(C)C(=O)C[C@H](OC(=O)[C@H](C)N(C)C(=O)CCS)[C@]1(C)O[C@H]1[C@H](C)[C@@H]1C[C@@](O)(NC(=O)O1)[C@H](OC)/C=C/C=C(\C)C2 [DM1] was tested, and the “Synergy score S” value (HCC-1954 cells [1]) was 2.8 ± 0.5.

In the case of Nc1ccn([C@@H]2O[C@H](CO)[C@@H](O)C2(F)F)c(=O)n1 [Gemcitabine], the “Synergy score S” value (MDA-MB-453 cells) is reported as 1.6±1.2, the “Synergy score S” value (NCI-N87 cells) is reported as 1.1±0.5 and the “Synergy score S” value (HCC-1954 cells [1]; [3]) is reported as 6.9±0.3.

In the case of CCN(CC)CCNc1ccc(CO)c2sc3ccccc3c(=O)c12 [Hycanthone], the “Synergy score S” value (HCC-1954 cells [1]; [4]) is reported as 0.1.

O=c1cc(-c2cccc3c2Sc2ccccc2S3)oc(N2CCOCC2)c1 [KU-55933] was tested, and the “Synergy score S” value (HCC-1954 cells [1]; [5]) was 2.1±1.2.

In the case of Cc1cnc(NC(=O)Nc2cc(Br)c(C)cc2OC[C@@H]2CNCCO2)cn1 [LY2603618], the “Synergy score S” value (HCC-1954 cells [1]; [5]) is reported as 4.1+0.3 and the “Synergy score S” value (MDA-MB-468 cells) is reported as 4.4+1.7.

In the case of Nc1nc(OCc2cc(Br)cs2)c2[nH]cnc2n1 [Lomeguatrib], the “Synergy score S” value (HCC-1954 cells [1]; [5]) is reported as 0.1±0.3 and the “Synergy score S” value (MDA-MB-468 cells) is reported as 2.8±2.3.

For CC[C@H](C)[C@@H]([C@@H](CC(=O)N1CCC[C@H]1[C@H](OC)[C@@H](C)C(=O)N[C@H](C)[C@@H](O)c1ccccc1)OC)N(C)C(=O)[C@@H](NC(=O)[C@@H](NC)C(C)C)C(C)C [MMAE] (H-[NMeV]V[Dil][Dolaproine]-X1), the “Synergy score S” value (HCC-1954 cells [1]; [3]) was 2.2+0.1.

In the case of O=c1cc(N2CCOCC2)oc2c(-c3cccc4c3sc3ccccc34)cccc12 [NU7441], the “Synergy score S” value (HCC-1954 cells [1]; [4]) is reported as “did not yield a synergy score exceeding the cutoff”.

In the case of O=C(c1cc(Cc2n[nH]c(=O)c3ccccc23)ccc1F)N1CCN(C(=O)C2CC2)CC1 [Olaparib], the “Synergy score S” value (HCC-1954 cells [1]; [5]) is reported as 0.6+0.4 and the “Synergy score S” value (MDA-MB-468 cells) is reported as 1.1+0.1.

For Nc1nc(NC2CC2)cc(-c2cccc(Cl)c2Cl)n1 [TH588], the “Synergy score S” value (HCC-1954 cells [1]; [5]) was −0.2±0.3 and the “Synergy score S” value (MDA-MB-468 cells) was −0.4+0.3.

C=CCNC1=C2C[C@@H](C)C[C@H](OC)[C@H](O)[C@@H](C)/C=C(\C)[C@H](OC(N)=O)[C@@H](OC)/C=C\C=C(/C)C(=O)NC(=CC1=O)C2=O [Tanespimycin] was tested, and the “Synergy score S” value (HCC-1954 cells [1]) was 1.4±0.4.

With COc1cc2cc(C(=O)N3C[C@@H](CCl)c4c3cc(O)c3ccccc43)[nH]c2c(OC)c1OC [compound 24] the IC50 (HCC-1954 cells [2]) was 24 ± 32 nM, the “Synergy score S” value (HCC-1954 cells [1]; [3]) was 6.1 ± 1.2 and the “Synergy score S” value (HCC-1954 cells [1]; combination with AZD6738, HCC-1954, 6 d, listed as CBI-TMI (24)) was 6.1±1.2.
